Test results taken from the NIST ThermoML archive (doi:10.1021/je8008182).
Numbers after ± are expanded uncertainties.

Assay: xn = mol fraction of the nth substance listed
Settings: 101 kPa, Liquid; for mass density: Pycnometric method; for viscosity: Capillary tube (Ostwald / Ubbelohde) method

## Cc1ccncc1 [4-methylpyridine] + O
318.15 K, x1 = 0.0211
  mass density: 987.5 ± 0.5 kg/m3
318.15 K, x1 = 0.0489
  mass density: 983.3 ± 0.6 kg/m3
318.15 K, x1 = 0.1143
  mass density: 977.1 ± 0.6 kg/m3
318.15 K, x1 = 0.225
  mass density: 969 ± 0.7 kg/m3
318.15 K, x1 = 0.3111
  mass density: 965 ± 0.7 kg/m3
318.15 K, x1 = 0.4
  mass density: 961.2 ± 0.8 kg/m3
318.15 K, x1 = 0.5
  mass density: 955.7 ± 0.8 kg/m3
318.15 K, x1 = 0.6353
  mass density: 945.9 ± 0.8 kg/m3
318.15 K, x1 = 0.75
  mass density: 941.4 ± 0.8 kg/m3
318.15 K, x1 = 0.9
  mass density: 937 ± 0.8 kg/m3
318.15 K, x1 = 1
  mass density: 932.1 ± 0.7 kg/m3
323.15 K, x1 = 0.0211
  viscosity: 0.6775 ± 0.0063 mPa·s
  mass density: 985 ± 0.5 kg/m3
323.15 K, x1 = 0.0489
  viscosity: 0.8486 ± 0.0078 mPa·s
  mass density: 980.3 ± 0.6 kg/m3
323.15 K, x1 = 0.1143
  viscosity: 1.099 ± 0.01 mPa·s
  mass density: 973.4 ± 0.7 kg/m3
323.15 K, x1 = 0.225
  viscosity: 1.304 ± 0.012 mPa·s
  mass density: 964.8 ± 0.7 kg/m3
323.15 K, x1 = 0.3111
  viscosity: 1.279 ± 0.012 mPa·s
  mass density: 960.7 ± 0.7 kg/m3
323.15 K, x1 = 0.4
  viscosity: 1.207 ± 0.011 mPa·s
  mass density: 956.5 ± 0.8 kg/m3
323.15 K, x1 = 0.5
  viscosity: 1.136 ± 0.01 mPa·s
  mass density: 951 ± 0.8 kg/m3
323.15 K, x1 = 0.6353
  viscosity: 0.9623 ± 0.0085 mPa·s
  mass density: 941.4 ± 0.8 kg/m3
323.15 K, x1 = 0.75
  viscosity: 0.8112 ± 0.0074 mPa·s
  mass density: 936.7 ± 0.8 kg/m3
323.15 K, x1 = 0.9
  viscosity: 0.6516 ± 0.006 mPa·s
  mass density: 932.5 ± 0.8 kg/m3
323.15 K, x1 = 1
  viscosity: 0.6505 ± 0.0061 mPa·s
  mass density: 927.7 ± 0.8 kg/m3
328.15 K, x1 = 0.0211
  viscosity: 0.6136 ± 0.0058 mPa·s
  mass density: 983 ± 0.6 kg/m3
328.15 K, x1 = 0.0489
  viscosity: 0.762 ± 0.0074 mPa·s
  mass density: 977.3 ± 0.6 kg/m3
328.15 K, x1 = 0.1143
  viscosity: 0.9781 ± 0.0088 mPa·s
  mass density: 969.5 ± 0.7 kg/m3
328.15 K, x1 = 0.225
  viscosity: 1.147 ± 0.01 mPa·s
  mass density: 960.4 ± 0.7 kg/m3
328.15 K, x1 = 0.3111
  viscosity: 1.119 ± 0.01 mPa·s
  mass density: 956 ± 0.8 kg/m3
328.15 K, x1 = 0.4
  viscosity: 1.069 ± 0.0098 mPa·s
  mass density: 952 ± 0.8 kg/m3
328.15 K, x1 = 0.5
  viscosity: 1.007 ± 0.0092 mPa·s
  mass density: 946.3 ± 0.8 kg/m3
328.15 K, x1 = 0.6353
  viscosity: 0.8648 ± 0.0083 mPa·s
  mass density: 936.7 ± 0.8 kg/m3
328.15 K, x1 = 0.75
  viscosity: 0.7423 ± 0.0068 mPa·s
  mass density: 932.1 ± 0.8 kg/m3
328.15 K, x1 = 0.9
  viscosity: 0.6014 ± 0.0058 mPa·s
  mass density: 927.8 ± 0.8 kg/m3
328.15 K, x1 = 1
  viscosity: 0.5905 ± 0.0058 mPa·s
  mass density: 923.2 ± 0.8 kg/m3
333.15 K, x1 = 0.0211
  viscosity: 0.5649 ± 0.0052 mPa·s
  mass density: 979.3 ± 0.6 kg/m3
333.15 K, x1 = 0.0489
  viscosity: 0.6555 ± 0.0063 mPa·s
  mass density: 974.1 ± 0.6 kg/m3
333.15 K, x1 = 0.1143
  viscosity: 0.8941 ± 0.0081 mPa·s
  mass density: 965.8 ± 0.7 kg/m3
333.15 K, x1 = 0.225
  viscosity: 1.037 ± 0.0092 mPa·s
  mass density: 956.4 ± 0.7 kg/m3
333.15 K, x1 = 0.3111
  viscosity: 1.008 ± 0.0091 mPa·s
  mass density: 951.4 ± 0.8 kg/m3
333.15 K, x1 = 0.4
  viscosity: 0.9636 ± 0.0088 mPa·s
  mass density: 947.5 ± 0.8 kg/m3
333.15 K, x1 = 0.5
  viscosity: 0.9199 ± 0.0083 mPa·s
  mass density: 941.6 ± 0.8 kg/m3
333.15 K, x1 = 0.6353
  viscosity: 0.7522 ± 0.0072 mPa·s
  mass density: 931.9 ± 0.8 kg/m3
333.15 K, x1 = 0.75
  viscosity: 0.6899 ± 0.0063 mPa·s
  mass density: 927.3 ± 0.8 kg/m3
333.15 K, x1 = 0.9
  viscosity: 0.5378 ± 0.0053 mPa·s
  mass density: 923 ± 0.8 kg/m3
333.15 K, x1 = 1
  viscosity: 0.5329 ± 0.0054 mPa·s
  mass density: 918.5 ± 0.8 kg/m3
338.15 K, x1 = 0.0211
  viscosity: 0.5403 ± 0.0051 mPa·s
  mass density: 976.3 ± 0.6 kg/m3
338.15 K, x1 = 0.0489
  viscosity: 0.6149 ± 0.0055 mPa·s
  mass density: 970.8 ± 0.6 kg/m3
338.15 K, x1 = 0.1143
  viscosity: 0.8036 ± 0.0085 mPa·s
  mass density: 961.7 ± 0.6 kg/m3
338.15 K, x1 = 0.225
  viscosity: 0.9466 ± 0.0096 mPa·s
  mass density: 952.2 ± 0.6 kg/m3
338.15 K, x1 = 0.3111
  viscosity: 0.9064 ± 0.0084 mPa·s
  mass density: 946.9 ± 0.7 kg/m3
338.15 K, x1 = 0.4
  viscosity: 0.8656 ± 0.008 mPa·s
  mass density: 942.8 ± 0.8 kg/m3
338.15 K, x1 = 0.5
  viscosity: 0.8403 ± 0.0083 mPa·s
  mass density: 936.7 ± 0.9 kg/m3
338.15 K, x1 = 0.6353
  viscosity: 0.6948 ± 0.0061 mPa·s
  mass density: 927.5 ± 0.6 kg/m3
338.15 K, x1 = 0.75
  viscosity: 0.641 ± 0.0063 mPa·s
  mass density: 922.6 ± 0.7 kg/m3
338.15 K, x1 = 0.9
  viscosity: 0.4964 ± 0.0046 mPa·s
  mass density: 918.5 ± 0.9 kg/m3
338.15 K, x1 = 1
  viscosity: 0.4815 ± 0.005 mPa·s
  mass density: 914 ± 0.8 kg/m3
